Measurements taken from ChEMBL document CHEMBL1130534, “Potent antiinflammatory 3-thiazole-4(5)-acetic acids of 1,2-benzisothiazole” (1997).
“And” between values parts separate entries of the source, which are not always exact repeats. Identical values can stand only once.

What was measured:
Type in all cases: functional
Rattus norvegicus [1] = test: Compound administered intraperitoneally was tested for antiinflammatory activity in carrageenan-induced rat paw edema assay after 2 hours; design: concentration or dose not given beside the values
Rattus norvegicus [2] = test: Compound administered orally was tested for antiinflammatory activity in carrageenan-induced rat paw edema assay after 3.5 hours; design: concentration or dose not given beside the values
Rattus norvegicus [3] = test: Compound (50 mg/kg) administered orally was tested for antiinflammatory activity in carrageenan-induced rat paw edema assay after 2 hours
Rattus norvegicus [4] = test: Compound administered orally was tested for antiinflammatory activity in carrageenan-induced rat paw edema assay after 2 hours; design: concentration or dose not given beside the values
Rattus norvegicus [5] = test: Compound (50 mg/kg) administered intraperitoneally was tested for antiinflammatory activity in carrageenan induced rat paw edema assay after 2 hours
Rattus norvegicus [6] = test: Compound (50 mg/kg) administered intraperitoneally was tested for antiinflammatory activity in carrageenan induced rat paw edema assay after 3.5 hours
Rattus norvegicus [7] = test: Compound administered intraperitoneally was tested for antiinflammatory activity in carrageenan-induced rat paw edema assay after 3.5 hours; design: concentration or dose not given beside the values

Row | Structure (SMILES) | Inhibition (Rattus norvegicus [1]) [%] | Inhibition (Rattus norvegicus [2]) | Inhibition (Rattus norvegicus [3]) [%] | Inhibition (Rattus norvegicus [4]) [%] | Inhibition (Rattus norvegicus [5]) [%] | Inhibition (Rattus norvegicus [6]) [%] | Inhibition (Rattus norvegicus [7]) [%]
1 | O=C(O)Cc1sc(-c2nsc3ccccc23)nc1-c1ccc(Cl)cc1 | 78 | 62% and 61% | 69 | 75 | 76 | 64 | 67
2 | CCOC(=O)Cc1sc(-c2nsc3ccccc23)nc1-c1ccc(OC)cc1 | 34 | 29% |  | 20 |  |  | 30
3 | O=C(O)Cc1csc(-c2nsc3ccccc23)n1 | 55 | 46% |  | 64 |  |  | 64
4 | O=C(O)Cc1sc(-c2nsc3ccccc23)nc1-c1ccccc1 | 45 | 19% |  | 15 |  |  | 7
5 | CCOC(=O)Cc1sc(-c2nsc3ccccc23)nc1-c1ccccc1 | <10 | 11% |  | <10 |  |  | <10
6 | CCOC(=O)Cc1sc(-c2nsc3ccccc23)nc1-c1ccc(Cl)cc1 | 24 | 22% |  | 34 |  |  | 13
7 | CCOC(=O)Cc1csc(-c2nsc3ccccc23)n1 |  | 11% |  | 18 |  |  | 
8 | COc1ccc(-c2nc(-c3nsc4ccccc34)sc2CC(=O)O)cc1 | 40 | 33% |  | 36 |  |  | 24
9 | CC(C)Cc1ccc(C(C)C(=O)O)cc1 (configuration not stated) [IBUPROFEN] | 70 | 65% |  | 62 |  |  | 74
